PubChem BioAssay (NCI)
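Dose response: 5 concentrations. Exposure: 48 h. Format: 96-well plates. Endpoint: linear interpolation; highest concentration if not reached. GI50 marks 50% less growth. TGI marks complete inhibition of growth.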

Key:
Assay in all cases: NCI anticancer screen, dose series, 48 h
[1] = tested on: IGROV1 ovarian
[2] = tested on: CCRF-CEM leukemia
[3] = tested on: OVCAR-3 ovarian
[4] = tested on: RPMI-8226 leukemia
[5] = tested on: A549 NSCLC
[6] = tested on: OVCAR-4 ovarian
[7] = tested on: CAKI-1 renal
[8] = tested on: HCT-15 colon
[9] = tested on: COLO 205 colon
[10] = tested on: SK-MEL-2 melanoma

## Nc1ncnc2c1c(-c1ccc(Oc3ccccc3)cc1)nn2CC1SSCC1O (stereo not drawn)
[1]
  GI50: 2.44 µM
  TGI: 8.31 µM
[2]
  GI50: 0.138 µM
  TGI: 32.5 µM
[3]
  GI50: 0.659 µM
  TGI: 1.62 µM
[4]
  GI50: 5.05 µM
  TGI: 21.3 µM
[5]
  GI50: 3.8 µM
  TGI: 9.17 µM
[6]
  GI50: 2.2 µM
  TGI: 22.1 µM
[7]
  GI50: 3.71 µM
  TGI: 12.7 µM
[8]
  GI50: 3.03 µM
  TGI: 9.88 µM
[9]
  GI50: 1.25 µM
  TGI: 5.5 µM
[10]
  GI50: 0.825 µM
  TGI: 2.15 µM

## O=C(CCCCN1CCN(CCCCC(=O)Nc2ccccc2C#C/C=C\C#Cc2ccccc2C(F)(F)F)CC1)Nc1ccccc1C#C/C=C\C#Cc1ccccc1C(F)(F)F
[1]
  GI50: 9.37 µM
  TGI: 26.2 µM
[2]
  GI50: 6.02 µM
  TGI: 17 µM
[3]
  GI50: 10.6 µM
  TGI: 21.8 µM
[4]
  GI50: 7.46 µM
  TGI: 19.1 µM
[5]
  GI50: 12.4 µM
  TGI: 37.6 µM
[6]
  GI50: 16.2 µM
  TGI: 49.5 µM
[7]
  GI50: > 50 µM
  TGI: > 50 µM
[8]
  GI50: 10.5 µM
  TGI: 23.8 µM
[9]
  GI50: 38.3 µM
  TGI: > 50 µM
[10]
  GI50: 12.4 µM
  TGI: 29.9 µM

## CCOC(=O)C(Cc1ccc(N=NN(C)C)cc1)NC(=O)CC1c2ccccc2-c2ccccc21 (stereo not drawn)
[1]
  TGI: > 100 µM
[2]
  TGI: > 100 µM
[3]
  TGI: > 100 µM
[4]
  TGI: > 100 µM
[5]
  TGI: > 100 µM
[6]
  TGI: > 100 µM
[7]
  TGI: > 100 µM
[8]
  TGI: > 100 µM
[9]
  TGI: > 100 µM
[10]
  TGI: > 100 µM

## CC1CCCP(=O)(c2ccccc2)CCC1 (stereo not drawn)
[1]
  TGI: > 100 µM
[2]
  TGI: > 100 µM
[3]
  TGI: > 100 µM
[4]
  TGI: > 100 µM
[5]
  TGI: > 100 µM
[6]
  TGI: > 100 µM
[7]
  TGI: > 100 µM
[8]
  TGI: > 100 µM
[9]
  TGI: > 100 µM
[10]
  TGI: > 100 µM

## CCc1ccc(Oc2c(-c3ccc(OCc4ccc(Cl)cc4)cc3O)nn(C)c2C(F)(F)F)cc1
[1]
  GI50: 0.654 µM
  TGI: 2.7 µM
[2]
  GI50: 0.454 µM
  TGI: 4.82 µM
[3]
  GI50: 0.334 µM
  TGI: 1.13 µM
[4]
  GI50: 0.505 µM
  TGI: 3.6 µM
[5]
  GI50: 0.514 µM
  TGI: 1.95 µM
[6]
  GI50: 0.547 µM
  TGI: 2.33 µM
[7]
  GI50: 2.09 µM
  TGI: 7.25 µM
[8]
  GI50: 0.365 µM
  TGI: 1.45 µM
[9]
  GI50: 0.457 µM
  TGI: 1.73 µM
[10]
  GI50: 1.02 µM
  TGI: 2.63 µM

## COC(=O)C1CCC(C)CC1=O (stereo not drawn)
[1]
  TGI: > 100 µM
[2]
  TGI: > 100 µM
[3]
  TGI: > 100 µM
[4]
  TGI: > 100 µM
[5]
  TGI: > 100 µM
[6]
  TGI: > 100 µM
[7]
  TGI: > 100 µM
[8]
  TGI: > 100 µM
[9]
  TGI: > 100 µM
[10]
  TGI: > 100 µM

## COc1ccccc1/C=C(\NC(=O)c1ccccc1)c1nc2ccc(Cl)cc2[nH]1
[1]
  TGI: > 100 µM
[2]
  TGI: > 100 µM
[3]
  TGI: 49.6 µM
[4]
  TGI: 38.5 µM
[5]
  TGI: 70.2 µM
[6]
  TGI: > 100 µM
[7]
  TGI: 74.4 µM
[8]
  TGI: > 100 µM
[9]
  TGI: 38.8 µM
[10]
  TGI: 65.7 µM

## COc1ccc(N(CC(=O)O)N=O)cc1
[1]
  TGI: > 100 µM
[2]
  TGI: > 100 µM
[3]
  TGI: > 100 µM
[4]
  TGI: > 100 µM
[5]
  TGI: > 100 µM
[6]
  TGI: > 100 µM
[7]
  TGI: > 100 µM
[8]
  TGI: > 100 µM
[9]
  TGI: > 100 µM
[10]
  TGI: > 100 µM

## CO[C@H]1C(=O)[C@]2(C)[C@@H](OC)C[C@H]3OC[C@@]3(OC(C)=O)[C@H]2[C@H](OC(=O)c2ccccc2)[C@]2(O)C[C@H](OC(=O)[C@H](O)[C@@H](NC(=O)OC(C)(C)C)c3ccccc3)C(C)=C1C2(C)C
[1]
  GI50: < 0.01 µM
  TGI: > 100 µM
[2]
  GI50: < 0.01 µM
  TGI: 42.3 µM
[3]
  GI50: < 0.01 µM
  TGI: < 0.01 µM
[4]
  GI50: < 0.01 µM
  TGI: > 38 µM
[5]
  GI50: < 0.01 µM
  TGI: > 64.9 µM
[6]
  TGI: > 77.1 µM
[7]
  TGI: > 52.9 µM
[8]
  GI50: < 0.01 µM
  TGI: 56 µM
[9]
  GI50: < 0.01 µM
  TGI: 0.0103 µM
[10]
  GI50: < 0.01 µM
  TGI: 0.973 µM

## Cc1ccc(-n2c3nc(=O)n(C)c(=O)c-3nc3ccccc32)c(C)c1
[1]
  TGI: 36.4 µM
[2]
  TGI: 41.6 µM
[3]
  TGI: 6.33 µM
[4]
  TGI: 42.4 µM
[5]
  TGI: 20.4 µM
[6]
  TGI: 24.6 µM
[7]
  TGI: 57.7 µM
[8]
  TGI: 22.5 µM
[9]
  TGI: 13 µM
[10]
  TGI: 27.5 µM

## Cc1cc(NC(=O)NC(=O)c2ccccc2NC(=O)CN(C)C)ccc1Oc1ncc(Br)cn1
[1]
  TGI: > 100 µM
[2]
  TGI: > 63.8 µM
[3]
  TGI: 13.1 µM
[4]
  TGI: > 100 µM
[5]
  TGI: > 100 µM
[6]
  TGI: > 100 µM
[7]
  TGI: 64.3 µM
[8]
  TGI: > 100 µM
[9]
  TGI: 39.7 µM
[10]
  TGI: > 85.1 µM

## CN(C)C1C(=O)C(C(N)=O)=C(O)C2(O)C(=O)C3=C(O)c4c(O)cccc4C(C)(O)C3CC12.[Cl][Sb]([Cl])[Cl] (stereo not drawn)
[1]
  GI50: 2.96 µM
  TGI: 8.5 µM
[2]
  GI50: 2.39 µM
  TGI: 11.2 µM
[3]
  GI50: 3.62 µM
  TGI: 12.4 µM
[4]
  GI50: 2.41 µM
  TGI: 5.85 µM
[5]
  GI50: 3.47 µM
  TGI: 13.8 µM
[6]
  GI50: 4.45 µM
  TGI: 19 µM
[7]
  GI50: 1.83 µM
  TGI: 4.22 µM
[8]
  GI50: 3.59 µM
  TGI: 16.1 µM
[9]
  GI50: 2.94 µM
  TGI: 9.17 µM
[10]
  GI50: 2.99 µM
  TGI: 8.04 µM
